Activity calls are given as the source filed them. No cut-off for these calls is given here.
Assays:
Cal27CisR [1] = experiment: Downregulation of BAX expression in cisplatin resistant human Cal27CisR cells at 0.316 uM incubated for 48 hrs by Immunoblotting analysis; assay type: functional, cell-based
cells [2] = settings: Homo sapiens, Cal27CisR
[3] = Cytotoxicity against human HEK293 cells assessed as reduction in cell viability incubated for 72 hrs by MTT assay; assay type: toxicity, cell-based
CAL-27 [4] = experiment: Downregulation of survivin expression in human CAL-27 cells at 0.316 uM incubated for 48 hrs by Immunoblotting analysis; assay type: functional, cell-based
Histone deacetylase 4 = Histone deacetylase 4 (Homo sapiens, UniProt P56524); experiment: Inhibition of recombinant HDAC4 (unknown origin) using Bos-Lys(TFA)-AMC as substrate preincubated with compound for 5 mins and measured after 90 mins by NOVOstar microplate reader analysis
Sequence of Histone deacetylase 4 (P56524 whole entry): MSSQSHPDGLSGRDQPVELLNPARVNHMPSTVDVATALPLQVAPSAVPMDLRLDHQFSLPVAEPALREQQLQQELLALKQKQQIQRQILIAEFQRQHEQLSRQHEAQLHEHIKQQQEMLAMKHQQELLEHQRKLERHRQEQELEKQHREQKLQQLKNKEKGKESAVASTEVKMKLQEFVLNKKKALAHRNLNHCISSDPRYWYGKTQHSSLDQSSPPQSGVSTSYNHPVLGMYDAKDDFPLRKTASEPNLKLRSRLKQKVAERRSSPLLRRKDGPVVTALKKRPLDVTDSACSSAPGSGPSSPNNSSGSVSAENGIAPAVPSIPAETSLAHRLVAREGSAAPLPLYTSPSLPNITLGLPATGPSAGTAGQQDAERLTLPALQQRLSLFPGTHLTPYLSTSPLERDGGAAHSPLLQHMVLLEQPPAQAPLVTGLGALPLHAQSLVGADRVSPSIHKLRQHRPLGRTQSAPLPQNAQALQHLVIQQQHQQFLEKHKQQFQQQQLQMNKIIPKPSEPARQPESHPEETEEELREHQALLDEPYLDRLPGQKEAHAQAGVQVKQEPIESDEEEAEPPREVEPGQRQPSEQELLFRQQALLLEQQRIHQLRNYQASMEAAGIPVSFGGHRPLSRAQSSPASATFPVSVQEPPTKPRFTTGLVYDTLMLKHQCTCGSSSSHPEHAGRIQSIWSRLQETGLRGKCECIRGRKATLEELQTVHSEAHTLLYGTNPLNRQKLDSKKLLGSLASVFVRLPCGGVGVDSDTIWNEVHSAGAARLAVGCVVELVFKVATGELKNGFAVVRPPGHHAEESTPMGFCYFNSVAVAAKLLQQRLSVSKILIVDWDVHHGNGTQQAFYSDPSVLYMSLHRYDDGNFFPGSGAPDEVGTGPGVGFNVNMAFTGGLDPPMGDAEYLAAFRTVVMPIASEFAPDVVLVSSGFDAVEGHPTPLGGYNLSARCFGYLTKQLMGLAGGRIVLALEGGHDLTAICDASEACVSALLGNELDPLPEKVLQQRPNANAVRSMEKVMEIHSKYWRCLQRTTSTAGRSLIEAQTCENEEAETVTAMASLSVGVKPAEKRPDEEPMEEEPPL

A2780cisR [5] = experiment: Induction of DNA damage in cisplatin resistant human A2780 cisR cells assessed as increase in gammaH2AX formation at 2 uM in presence of cisplatin at 16 uM pretreated with compound for 48 hrs prior to addition of cisplatin and measured after 24 hrs by Hoechst 33342 staining based Immunofluorescence analysis; assay type: functional, cell-based; settings: time 72.0 hrs
cells [6] = settings: Homo sapiens, A2780
Cal27CisR [7] = experiment: Induction of apoptosis in cisplatin resistant human Cal27CisR cells assessed as caspase-3/7 activation at 0.316 uM incubated for 48 hrs by capase3/7 green dye based analysis; assay type: functional, cell-based
CAL-27 [8] = experiment: Induction of apoptosis in human CAL-27 cells assessed as increase in apoptotic nuclei at sub-G1 phase at 0.316 uM in presence of cisplatin at 3 uM preincubated with compound for 48 hrs prior to addition of cisplatin and measured after 24 hrs by flow cytometric analysis; assay type: functional, cell-based; settings: time 72.0 hrs
Cal27CisR [9] = experiment: Induction of apoptosis in cisplatin resistant human Cal27CisR cells assessed as apoptotic nuclei at sub-G1 phase at 0.316 uM incubated for 48 hrs by flow cytometric analysis; assay type: functional, cell-based
Cal27CisR [10] = experiment: Induction of apoptosis in cisplatin resistant human Cal27CisR cells assessed as increase in Bcl-2 protein level at 0.316 uM incubated for 48 hrs by Immunoblotting analysis; assay type: functional, cell-based
CAL-27 [11] = experiment: Induction of apoptosis in human CAL-27 cells assessed as increase in BIM expression at 0.316 uM incubated for 48 hrs by Immunoblotting analysis; assay type: functional, cell-based
MV4-11 = experiment: cells; settings: Homo sapiens, MV4-11, 72 h
A2780 [12] = experiment: Induction of cell cycle arrest in human A2780 cells assessed as increase in p21 expression at 0.75 uM incubated for 48 hrs by Western blotting analysis; assay type: functional, cell-based
A2780 [13] = experiment: Induction of DNA damage in human A2780 cells assessed as increase in gammaH2AX formation at 0.75 uM in presence of cisplatin at 3.5 uM pretreated with compound for 48 hrs prior to addition of cisplatin and measured after 24 hrs by Hoechst 33342 staining based Immunofluorescence analysis; assay type: functional, cell-based; settings: time 72.0 hrs
cells [14] = settings: Homo sapiens, Cal27CisR, 72 h
A2780 [15] = experiment: Downregulation of survivin expression in human A2780 cells at 0.75 uM incubated for 48 hrs by Immunoblotting analysis; assay type: functional, cell-based
CAL-27 [16] = experiment: Downregulation of survivin expression in human CAL-27 cells at 0.316 uM in presence of cisplatin at 3 uM preincubated with compound for 48 hrs prior to addition of cisplatin and measured after 24 hrs by Immunoblotting analysis; assay type: functional, cell-based; settings: time 72.0 hrs
Cal27CisR [17] = experiment: Downregulation of survivin expression in cisplatin resistant human Cal27CisR cells at 0.316 uM incubated for 48 hrs by Immunoblotting analysis; assay type: functional, cell-based
A2780cisR [18] = experiment: Induction of apoptosis in cisplatin resistant human A2780 cisR cells assessed as caspase-3/7 activation at 2 uM incubated for 48 hrs by capase3/7 green dye based analysis; assay type: functional, cell-based
CAL-27 [19] = experiment: Induction of cell cycle arrest in human CAL-27 cells assessed as increase in p21 expression at 0.316 uM incubated for 48 hrs by Western blotting analysis; assay type: functional, cell-based
Cal27CisR [20] = experiment: Induction of apoptosis in cisplatin resistant human Cal27CisR cells assessed as increase in Bcl-2 protein level at 0.316 uM in presence of cisplatin at 16.5 uM preincubated with compound for 48 hrs prior to addition of cisplatin and measured after 24 hrs by Immunoblotting analysis; assay type: functional, cell-based; settings: time 72.0 hrs
Cal27CisR [21] = experiment: Induction of apoptosis in cisplatin resistant human Cal27CisR cells assessed as increase in BIM expression at 0.316 uM in presence of cisplatin at 16.5 uM preincubated with compound for 48 hrs prior to addition of cisplatin and measured after 24 hrs by Immunoblotting analysis; assay type: functional, cell-based; settings: time 72.0 hrs
HL-60 = experiment: cells; settings: Homo sapiens, HL-60, 72 h
CAL-27 [22] = experiment: Induction of apoptosis in human CAL-27 cells assessed as caspase-3/7 activation at 0.316 uM incubated for 48 hrs by capase3/7 green dye based analysis; assay type: functional, cell-based
cells [23] = settings: Homo sapiens, A2780cisR
A2780 [24] = experiment: Downregulation of BAX expression in human A2780 cells at 0.75 uM incubated for 48 hrs by Immunoblotting analysis; assay type: functional, cell-based
CAL-27 [25] = experiment: Downregulation of BAX expression in human CAL-27 cells at 0.316 uM incubated for 48 hrs by Immunoblotting analysis; assay type: functional, cell-based
A2780cisR [26] = experiment: Induction of apoptosis in cisplatin resistant human A2780 cisR cells assessed as increase in BIM expression at 2 uM incubated for 48 hrs by Immunoblotting analysis; assay type: functional, cell-based
CAL-27 [27] = experiment: Induction of apoptosis in human CAL-27 cells assessed as apoptotic nuclei at sub-G1 phase at 0.316 uM incubated for 48 hrs by flow cytometric analysis; assay type: functional, cell-based
A2780 [28] = experiment: Induction of apoptosis in human A2780 cells assessed as increase in BIM expression at 0.75 uM incubated for 48 hrs by Immunoblotting analysis; assay type: functional, cell-based
A2780 [29] = experiment: Downregulation of survivin expression in human A2780 cells at 0.75 uM in presence of cisplatin at 3.5 uM preincubated with compound for 48 hrs prior to addition of cisplatin and measured after 24 hrs by Immunoblotting analysis; assay type: functional, cell-based; settings: time 72.0 hrs
cells [30] = settings: Homo sapiens, A2780cisR; remark: listed apart in the source
A2780 [31] = experiment: Induction of apoptosis in human A2780 cells assessed as increase in caspase 3/7 activation at 0.75 uM in presence of cisplatin preincubated with compound for 48 hrs co-treated with cisplatin and measured after 24 hrs by capase3/7 green dye based analysis; assay type: functional, cell-based; settings: time 72.0 hrs
CAL-27 [32] = experiment: Induction of apoptosis in human CAL-27 cells assessed as increase in caspase 3/7 activation at 0.316 uM in presence of cisplatin preincubated with compound for 48 hrs co-treated with cisplatin and measured after 24 hrs by capase3/7 green dye based analysis; assay type: functional, cell-based; settings: time 72.0 hrs
CAL-27 [33] = experiment: Induction of apoptosis in human CAL-27 cells assessed as increase in Bcl-2 protein level at 0.316 uM in presence of cisplatin at 3 uM preincubated with compound for 48 hrs prior to addition of cisplatin and measured after 24 hrs by Immunoblotting analysis; assay type: functional, cell-based

| IC50 (cells [2]) [µM] | IC50 (Histone deacetylase 4) [µM] | IC50 (cells [6]) [µM] | IC50 (MV4-11) [µM] | IC50 (cells [14]) [µM] | SMILES | Activity (Cal27CisR [1]) | IC50 at 72 h [3] [µM] | Activity (CAL-27 [4]) | Activity (A2780cisR [5]) | Activity (Cal27CisR [7]) | Activity (CAL-27 [8]) | Activity (Cal27CisR [9]) | Activity (Cal27CisR [10]) | Activity (CAL-27 [11]) | Activity (A2780 [12]) | Activity (A2780 [13]) | Activity (A2780 [15]) | Activity (CAL-27 [16]) | Activity (Cal27CisR [17]) | Activity (A2780cisR [18]) | also measured |
| --- | --- | --- | --- | --- | --- | --- | --- | --- | --- | --- | --- | --- | --- | --- | --- | --- | --- | --- | --- | --- | --- |
| 2.22 | > 10 | 15.9 | 0.212 | 0.968 | CCCCNNC(=O)c1ccc(CN(CC(=O)NCc2ccccc2)C(=O)c2ccc(N(C)C)cc2)cc1 | Active | 1.09 | Active | inactive | Active; Low Activation Observed | Active | Active; Moderate Percentage Of Apoptotic Nuclei Observed | Not active; Slight Increase Observed | Active | Active | inactive | Active | Active | Active | Active; Remarkable Activation Observed | Activity (CAL-27 [19]): Active; Activity (Cal27CisR [20]): Not active; Slight Increase Observed; Activity (Cal27CisR [21]): Active; IC50 (HL-60): 0.474 µM; Activity (CAL-27 [22]): Active; Low Caspase Activation Observed; IC50 (cells [23]): 11 µM; Activity (A2780 [24]): Active; Activity (CAL-27 [25]): Active; Activity (A2780cisR [26]): Active; Activity (CAL-27 [27]): Active; Moderate Percentage Of Apoptotic Nuclei Observed; Activity (A2780 [28]): inactive; Activity (A2780 [29]): Active; IC50 (cells [30]): 0.268 µM; Activity (A2780 [31]): Active; Activity (CAL-27 [32]): Active; Activity (CAL-27 [33]): Not active; Slight Increase Observed |
| 2.32 | > 10 | 115 | 0.194 | 0.801 | CCCNNC(=O)c1ccc(CN(CC(=O)NCc2ccccc2)C(=O)c2ccc(N(C)C)cc2)cc1 | Active | 1.16 | Active | inactive | Active; Low Activation Observed | Active | Active; Moderate Percentage Of Apoptotic Nuclei Observed | Not active; Slight Increase Observed | Active | Active | inactive | Active | Active | Active | Active; Remarkable Activation Observed | Activity (CAL-27 [19]): Active; Activity (Cal27CisR [20]): Not active; Slight Increase Observed; Activity (Cal27CisR [21]): Active; IC50 (HL-60): 0.431 µM; Activity (CAL-27 [22]): Active; Low Caspase Activation Observed; IC50 (cells [23]): 12.5 µM; Activity (A2780 [24]): Active; Activity (CAL-27 [25]): Active; Activity (A2780cisR [26]): Active; Activity (CAL-27 [27]): Active; Moderate Percentage Of Apoptotic Nuclei Observed; Activity (A2780 [28]): inactive; Activity (A2780 [29]): Active; IC50 (cells [30]): 0.295 µM; Activity (A2780 [31]): Active; Activity (CAL-27 [32]): Active; Activity (CAL-27 [33]): Not active; Slight Increase Observed |
